The text below walks through data of article PMC6378217, “The lysyl oxidase like 2/3 enzymatic inhibitor, PXS‐5153A, reduces crosslinks and ameliorates fibrosis” (Journal of Cellular and Molecular Medicine, 2018).

The % inhibition is the percentage by which the read-out fell short of the control. A high value points to strong suppression. A word on the IC50: it is the point on the concentration scale where inhibition reaches its midpoint.

Experiment [1] addresses Potassium Channel [KATP] (Cricetus cricetus, UniProt Q09427). Description: Eurofins Hit Profiling Screen. It counts as binding. As to conditions: 10 μmol/L. As to the method:
PXS‐5153A was tested at Eurofins Cerep Panlabs Taiwan, Ltd in the “Hit Profiling Screen”, which tested 30 different targets.
Eurofins Hit Profiling Screen, was performed to evaluate the off -target profile of PXS-5153A. Biochemical assay results are presented as the percent inhibition of specific binding or activity.

Experiment [2] concerns Glutamate, NMDA, Phencyclidine. Description: Eurofins Hit Profiling Screen. The class given is binding. As to conditions: 10 μmol/L.
In experiment [3] the test system is LOXL2. The experiment can be described thus: LOXL2 enzymatic activity across all mammalian species tested. The class given is biochemical. As for the experimental part:
The measurement of the enzymatic activity of all lysyl oxidase family members was based on the detection of hydrogen peroxide with an Amplex‐Red oxidation assay, as described in Zhou et al26 Recombinant human semicarbazide sensitive amine oxidase (SSAO/VAP1), diamine oxidase (DAO) and monoamine oxidases A and B (MAO‐A and MAO‐B) assays were performed as previously described.27 For detailed enzymatic procedures, see supporting information.
The measurement of the enzymatic activity of all lysyl oxidase family members was based on the detection of hydrogen peroxide with an Amplex-Red oxidation assay, as described in Zhou et al.[1]; miniaturised in 384 well format, with the appropriate combination of substrate and assay buffer for each individual enzyme. After a 30 minute pre-incubation of the enzyme at 37 °C with the test compound (or with different incubation times for the time-dependency assay), one volume of reaction mixture containing 120 μM Amplex Red (AR) (Life Technologies), 1.5 U/mL horseradish peroxidase (HRP) (Sigma-Aldrich) and the specific substrate was added to each sample. The relative fluorescence units (RFU) were then measured every 2.5 minutes for 30 minutes at 37°C, excitation 565 nm and emission 590, on a BMG Clariostar Microplate Reader. […]

Experiment [4] has as its target Adrenergic α2A (Homo sapiens, UniProt P08913). The experiment can be described thus: Eurofins Hit Profiling Screen. It counts as binding. Particulars: 10 μmol/L.
Experiment [5] addresses Muscarinic M2 (Homo sapiens, UniProt P08172). The experiment can be described thus: Eurofins Hit Profiling Screen. It counts as binding. Particulars: 10 μmol/L.
Experiment [6] concerns the target Nicotinic Acetylcholine α1, Bungarotoxin (Homo sapiens, UniProt P02708+P07510+Q07001). The experiment can be described thus: Eurofins Hit Profiling Screen. The class given is binding. Particulars: 10 μmol/L.
The test system of experiment [7] is CCl4-induced liver fibrosis. The experiment can be described thus: CCl4-induced liver fibrosis. It counts as in vivo, Sprague Dawley rats. As to the method: Pellet then underwent acid hydrolysis in 6 mol/L HCl at 100°C for 24 hours. Hydroxyproline and crosslinks were extracted from the hydrolysate using an automated solid phase extraction system (Gilson […] system). After extraction and drying, hydroxyproline and crosslinks were analysed by UHPLC-ESI-MS/MS on a Thermo Dionex UHPLC and TSQ Endura triple quad mass spectrometer. Total protein was quantified in the samples using a commercially available kit (QuickZyme Biosciences, Leiden, The Netherlands). For detailed procedures, see supporting information. The study was performed by Pharmalegacy with approval from local ethics committee. […] Animals were killed 48 hours after the last CCl4 administration. […] Alanine aminotransferase (ALT) and aspartate aminotransferase (AST) levels were assessed in the plasma. One lobe of the liver tissue was fixed in 10% formalin, stained for Sirius red and the percentage coverage area was measured. The remainder of the liver was snap frozen and used for protein, hydroxyproline and crosslink analysis.

The target of experiment [8] is T1, LOXL2 (Homo sapiens, UniProt Q9Y4K0).
T1 sequence (Q9Y4K0 26-774): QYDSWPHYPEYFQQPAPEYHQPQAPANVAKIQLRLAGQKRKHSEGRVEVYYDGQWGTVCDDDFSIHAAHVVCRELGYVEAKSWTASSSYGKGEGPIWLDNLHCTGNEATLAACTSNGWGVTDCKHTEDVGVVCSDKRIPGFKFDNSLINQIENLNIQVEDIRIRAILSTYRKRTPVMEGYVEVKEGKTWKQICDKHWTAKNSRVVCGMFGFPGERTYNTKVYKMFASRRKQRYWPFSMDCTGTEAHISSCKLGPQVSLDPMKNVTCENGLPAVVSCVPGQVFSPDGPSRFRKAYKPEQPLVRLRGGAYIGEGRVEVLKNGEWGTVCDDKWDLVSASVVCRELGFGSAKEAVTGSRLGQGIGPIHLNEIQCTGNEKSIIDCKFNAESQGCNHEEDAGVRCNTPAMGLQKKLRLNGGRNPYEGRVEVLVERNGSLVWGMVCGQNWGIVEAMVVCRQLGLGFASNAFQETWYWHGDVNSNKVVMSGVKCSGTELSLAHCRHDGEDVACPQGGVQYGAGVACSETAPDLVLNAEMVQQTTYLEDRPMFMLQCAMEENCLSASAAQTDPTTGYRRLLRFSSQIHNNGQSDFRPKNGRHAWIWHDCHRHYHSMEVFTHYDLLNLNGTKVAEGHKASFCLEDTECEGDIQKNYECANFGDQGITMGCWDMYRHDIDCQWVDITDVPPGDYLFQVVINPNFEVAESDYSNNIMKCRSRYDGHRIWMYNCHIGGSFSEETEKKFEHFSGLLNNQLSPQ
Description: Collagen oxidation assay. The class given is biochemical. More on the design: purchased R&D Systems. Particulars: 20 nmol/L rhLOXL2, different concentrations of PXS-5153A, slope at 20-40 minute. As to the method:
Collagen oxidation assay was based on the release of hydrogen peroxide as previously described27 and detailed in the supporting information. Briefly, collagen was combined with rhLOXL2 with or without the pan‐lysyl oxidase inhibitor BAPN (β‐aminoproprionitrile, 100 μmol/L, Sigma‐Aldrich) or PXS‐5153A. An Amplex reaction mixture was added into each well. The slope per minute of the kinetic curves for each sample was calculated using MARS data analysis software (BMG labtech) in the linear phase (between the 20 and 40 minute time points).
Collagen oxidation assay was based on the release of hydrogen peroxide as described previously described. In a 384 black well plate, 25 μL of collagen (rat tail, type I, Thermo Fisher, 1.5 mg/mL in 50 mM sodium borate buffer, pH 8.2) was combined with 25 μL rhLOXL2 (R&D Systems) with or without the pan-lysyl oxidase inhibitor BAPN (100 μM, Sigma-Aldrich) or PXS-5153A. A reaction mixture using AR (120 μM; Life Technologies), HRP (1.5 U/mL; Sigma-Aldrich) was prepared in 50 mM sodium borate buffer. […] The relative fluorescence units (RFU) were read every 1 minute for 3 hours at 37°C, excitation 565 nm and emission 590 (Clariostar, BMG labtech). The slope per minute of the kinetic curves for each sample was calculated using MARS data analysis software (BMG labtech) in the linear phase (between the 20-40 minute time points).

Experiment [9] concerns Phorbol Ester. The experiment can be described thus: Eurofins Hit Profiling Screen. Particulars: 10 μmol/L. It counts as binding.

Chain of Potassium Channel [KATP] (Q09427 whole entry): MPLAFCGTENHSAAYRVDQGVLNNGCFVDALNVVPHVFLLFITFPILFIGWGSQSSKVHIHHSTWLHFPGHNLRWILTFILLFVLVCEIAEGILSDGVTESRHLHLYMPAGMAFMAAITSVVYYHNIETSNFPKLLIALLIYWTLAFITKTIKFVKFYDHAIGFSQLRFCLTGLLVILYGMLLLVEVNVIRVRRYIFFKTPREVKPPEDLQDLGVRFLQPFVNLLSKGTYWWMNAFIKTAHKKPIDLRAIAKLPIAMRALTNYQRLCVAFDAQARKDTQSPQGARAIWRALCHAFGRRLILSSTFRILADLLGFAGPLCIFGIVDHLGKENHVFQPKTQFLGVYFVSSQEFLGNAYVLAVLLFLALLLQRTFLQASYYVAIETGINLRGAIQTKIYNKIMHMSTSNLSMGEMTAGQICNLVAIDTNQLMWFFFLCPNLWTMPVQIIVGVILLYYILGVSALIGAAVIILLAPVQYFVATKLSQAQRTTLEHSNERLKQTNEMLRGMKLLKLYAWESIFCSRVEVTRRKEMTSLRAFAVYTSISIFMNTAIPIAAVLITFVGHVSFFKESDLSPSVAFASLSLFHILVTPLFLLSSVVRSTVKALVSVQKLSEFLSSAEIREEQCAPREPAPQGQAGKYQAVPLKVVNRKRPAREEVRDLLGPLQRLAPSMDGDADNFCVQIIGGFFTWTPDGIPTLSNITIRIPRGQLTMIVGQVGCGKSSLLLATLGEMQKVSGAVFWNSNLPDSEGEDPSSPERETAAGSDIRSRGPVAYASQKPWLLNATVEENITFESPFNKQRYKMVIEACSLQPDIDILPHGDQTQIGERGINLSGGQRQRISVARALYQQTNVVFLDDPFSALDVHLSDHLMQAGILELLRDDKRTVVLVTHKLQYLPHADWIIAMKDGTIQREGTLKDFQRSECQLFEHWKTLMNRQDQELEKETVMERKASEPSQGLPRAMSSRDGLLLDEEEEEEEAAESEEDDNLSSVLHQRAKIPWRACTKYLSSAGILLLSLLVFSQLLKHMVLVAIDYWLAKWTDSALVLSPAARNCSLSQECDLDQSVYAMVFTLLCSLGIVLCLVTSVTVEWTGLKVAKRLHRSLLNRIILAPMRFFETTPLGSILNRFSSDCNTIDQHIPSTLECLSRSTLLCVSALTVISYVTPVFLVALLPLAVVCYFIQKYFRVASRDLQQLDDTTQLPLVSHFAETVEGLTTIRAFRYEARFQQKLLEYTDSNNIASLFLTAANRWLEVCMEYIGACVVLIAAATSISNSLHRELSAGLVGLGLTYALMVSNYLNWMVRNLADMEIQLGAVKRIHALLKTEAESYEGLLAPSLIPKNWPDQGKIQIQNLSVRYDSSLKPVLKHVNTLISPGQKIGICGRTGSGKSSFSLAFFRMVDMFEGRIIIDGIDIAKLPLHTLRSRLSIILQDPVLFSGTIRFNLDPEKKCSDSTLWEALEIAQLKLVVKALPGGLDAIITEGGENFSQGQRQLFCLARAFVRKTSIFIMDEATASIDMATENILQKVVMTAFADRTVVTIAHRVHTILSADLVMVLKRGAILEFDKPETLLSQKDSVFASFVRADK
Chain of Muscarinic M2 (P08172 whole entry): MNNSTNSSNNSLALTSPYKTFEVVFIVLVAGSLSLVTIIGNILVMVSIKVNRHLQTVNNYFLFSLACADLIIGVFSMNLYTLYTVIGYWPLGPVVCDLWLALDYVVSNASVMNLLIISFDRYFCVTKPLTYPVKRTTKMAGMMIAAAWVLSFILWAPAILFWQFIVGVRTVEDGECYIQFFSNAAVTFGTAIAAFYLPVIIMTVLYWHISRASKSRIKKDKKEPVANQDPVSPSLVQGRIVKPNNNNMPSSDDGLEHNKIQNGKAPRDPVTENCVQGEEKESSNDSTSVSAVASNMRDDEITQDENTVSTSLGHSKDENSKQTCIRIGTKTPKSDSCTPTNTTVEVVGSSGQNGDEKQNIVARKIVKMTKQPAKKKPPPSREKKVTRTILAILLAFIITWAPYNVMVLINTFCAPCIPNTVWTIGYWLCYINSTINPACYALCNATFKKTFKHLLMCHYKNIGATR
Chain of Adrenergic α2A (P08913 whole entry): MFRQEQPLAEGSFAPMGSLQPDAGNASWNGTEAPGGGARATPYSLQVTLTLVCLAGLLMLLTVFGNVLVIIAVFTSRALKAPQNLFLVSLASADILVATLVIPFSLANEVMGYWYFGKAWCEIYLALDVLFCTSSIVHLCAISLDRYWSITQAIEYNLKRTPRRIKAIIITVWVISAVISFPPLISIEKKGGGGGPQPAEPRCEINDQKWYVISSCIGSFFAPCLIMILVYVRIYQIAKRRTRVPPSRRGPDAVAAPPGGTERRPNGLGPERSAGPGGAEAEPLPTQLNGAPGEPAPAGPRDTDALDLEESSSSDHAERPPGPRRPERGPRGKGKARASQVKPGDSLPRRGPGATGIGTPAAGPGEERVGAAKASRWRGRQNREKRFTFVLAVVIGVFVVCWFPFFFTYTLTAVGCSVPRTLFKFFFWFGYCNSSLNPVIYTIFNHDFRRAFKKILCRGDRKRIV
Chain of Nicotinic Acetylcholine α1, Bungarotoxin (Q07001 22-517): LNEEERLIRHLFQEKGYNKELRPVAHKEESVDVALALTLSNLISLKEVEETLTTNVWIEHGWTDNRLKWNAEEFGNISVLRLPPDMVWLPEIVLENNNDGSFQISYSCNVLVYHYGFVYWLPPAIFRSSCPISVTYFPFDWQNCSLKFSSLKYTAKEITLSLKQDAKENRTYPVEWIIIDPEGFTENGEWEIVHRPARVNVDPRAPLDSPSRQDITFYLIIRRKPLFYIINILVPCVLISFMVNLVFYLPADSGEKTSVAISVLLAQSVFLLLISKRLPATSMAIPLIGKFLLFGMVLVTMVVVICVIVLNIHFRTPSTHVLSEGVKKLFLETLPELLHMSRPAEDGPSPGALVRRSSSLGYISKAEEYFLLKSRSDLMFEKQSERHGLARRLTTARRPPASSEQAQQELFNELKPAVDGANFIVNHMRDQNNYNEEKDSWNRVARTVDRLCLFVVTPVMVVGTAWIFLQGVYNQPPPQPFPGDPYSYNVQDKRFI
Chain of Nicotinic Acetylcholine α1, Bungarotoxin (P02708 21-457): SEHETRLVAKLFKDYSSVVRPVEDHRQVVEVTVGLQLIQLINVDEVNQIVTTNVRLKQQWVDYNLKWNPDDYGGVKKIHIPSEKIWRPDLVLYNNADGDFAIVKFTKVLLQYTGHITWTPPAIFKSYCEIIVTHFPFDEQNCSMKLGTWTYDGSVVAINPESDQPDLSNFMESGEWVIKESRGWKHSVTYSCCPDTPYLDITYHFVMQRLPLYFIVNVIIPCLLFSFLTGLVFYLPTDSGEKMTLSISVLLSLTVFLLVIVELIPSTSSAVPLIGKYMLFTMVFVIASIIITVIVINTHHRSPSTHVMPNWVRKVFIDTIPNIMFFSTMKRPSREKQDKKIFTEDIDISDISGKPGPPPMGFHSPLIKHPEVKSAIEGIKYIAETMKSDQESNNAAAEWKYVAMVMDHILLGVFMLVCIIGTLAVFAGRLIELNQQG
Chain of Nicotinic Acetylcholine α1, Bungarotoxin (P07510 23-517): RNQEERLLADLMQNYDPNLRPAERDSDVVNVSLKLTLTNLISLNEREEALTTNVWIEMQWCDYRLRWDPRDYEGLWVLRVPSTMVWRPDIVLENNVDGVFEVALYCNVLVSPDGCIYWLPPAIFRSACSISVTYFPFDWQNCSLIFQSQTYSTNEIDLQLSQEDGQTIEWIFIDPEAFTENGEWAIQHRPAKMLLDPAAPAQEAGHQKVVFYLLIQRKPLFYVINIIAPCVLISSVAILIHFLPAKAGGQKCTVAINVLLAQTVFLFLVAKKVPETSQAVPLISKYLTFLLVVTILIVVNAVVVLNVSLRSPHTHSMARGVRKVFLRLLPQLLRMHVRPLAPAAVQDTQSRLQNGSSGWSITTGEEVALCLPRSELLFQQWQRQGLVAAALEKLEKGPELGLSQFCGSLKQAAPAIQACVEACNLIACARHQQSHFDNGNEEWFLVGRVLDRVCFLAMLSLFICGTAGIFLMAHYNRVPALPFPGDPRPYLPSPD
Chain of Nicotinic Acetylcholine α1, Bungarotoxin (P11230 24-501, further chain): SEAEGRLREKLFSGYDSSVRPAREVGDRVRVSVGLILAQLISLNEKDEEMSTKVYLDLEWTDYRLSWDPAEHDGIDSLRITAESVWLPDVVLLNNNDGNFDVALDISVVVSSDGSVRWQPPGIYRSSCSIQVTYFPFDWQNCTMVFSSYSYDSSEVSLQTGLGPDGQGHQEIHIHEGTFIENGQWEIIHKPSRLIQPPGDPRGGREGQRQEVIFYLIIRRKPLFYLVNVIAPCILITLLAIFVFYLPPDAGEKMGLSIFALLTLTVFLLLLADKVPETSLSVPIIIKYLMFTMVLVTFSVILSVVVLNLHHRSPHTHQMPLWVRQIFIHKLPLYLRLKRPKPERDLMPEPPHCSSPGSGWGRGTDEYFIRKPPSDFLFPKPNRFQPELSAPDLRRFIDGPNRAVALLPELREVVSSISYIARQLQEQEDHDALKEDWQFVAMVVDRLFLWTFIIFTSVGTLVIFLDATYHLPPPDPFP

As for `Cc1c(-c2cccc(S(=O)(=O)N(C)C)c2)c2ncccc2n1C/C(F)=C/CN.Cl.Cl` [PXS-5153A], the “% inhibition” value is on record as 8% in [1]; 3% in experiment [2]; 97% in experiment [4]; 58% in experiment [5]; 2% in experiment [6]; 2% in [9]. Moreover, the IC50 in [3] was under 40 nM. In addition, in experiment [7], the “mature crosslink formation (PYD + DPD)” value is reported as “reduced”. Moreover, the “reduction of HYP content” value in experiment [7] (all dosing regimens) is over 30%. The “DHLNL formation” value in experiment [7] (all groups with therapeutic treatment) was “significant reduction”. Moreover, the “PYD” value in experiment [7] (all groups, only high dose q.d. statistically significant) is “different degrees of reduction”. In addition, the “reduction of collagen accumulation (Picrosirius red)” value in experiment [7] (both of the daily dosing groups) was “up to 51%”. Besides, the “DHLNL/HYP ratio increase” value in [7] (crosslink normalized relative to hydroxyproline content) was “reversed”. The “DPD crosslinks” value in experiment [7] (high dose q.d. treatment) is “significantly reduced”. For the same compound, the “liver injury, ALT and AST” value in experiment [7] (high dose q.d. treatment compared with the CCl4 treated animals) is given as “significantly dampened”. Further, the “immature crosslink formation (DHLNL + HLNL)” value in experiment [7] (therapeutic treatment, compared with the CCl4 treated animals) is recorded as “substantially reduced”. Further, in experiment [8], the “collagen oxidation” value is “impeding collagen oxidation”.
